In patent US20110092440A1, “METHOD OF REGULATING CELL GROWTH USING A PROTEASOME INHIBITOR” (THE BOARD OF TRUSTEES OF THE UNIVERSITY OF ILLINOIS, priority 2008, published 2011):
Non-standard residues stand in square brackets, D forms with d. Residues, ends and D or L forms follow the SMILES beside them. *: point of attachment. Nva = CCC[C@H](N)C(=O)O; Cbz = O=C(OCc1ccccc1)*; OtBu = CC(C)(C)O*

How the values were obtained:
[1] = system: FoxM1 transcriptional activity; experiment: FoxM1-dependent luciferase assay in U2OS-C3-Luc cells; format: cell-based, human; conditions: 1 μg/ml doxycycline, 24 hours, FIG. 2A
Procedure: The effects of proteasome inhibitors on FoxM1 transcriptional activity were tested by examining FoxM1-dependent luciferase activity in a luciferase assay. It was previously reported that thiazole antibiotics inhibited FoxM1-dependent transcriptional activity by measuring the reduction of luciferase activity in a U2OS-derived cell line stably expressing doxycycline-inducible FoxM1 and FoxM1-dependent luciferase (the U2OS-C3-Luc cell line). See U.S. Patent Application Publication No. 2008/0152618; Radhakrishnan et al. 2006; and Bhat et al., 2009. The same cell line was used in this experiment. U2OS-C3-Luc cells were treated with a combination of 1 μg/ml doxycycline and proteasome inhibitors at indicated concentrations for 24 hours, and the luciferase activity was measured. The luciferase activity was determined by using either the Luciferase Assay System (Promega, Madison, Wis.) or the Dual-Luciferase reporter assay system (Promega) according to the manufacturer's instructions.
The results shown in FIG. 2A (1) were normalized by the amount of proteins in the sample; and the results shown in FIG. 2A (2) were normalized using the Dual-luciferase reporter assay system (Promega).

[2] = system: FoxM1 protein; experiment: Immunoblot analysis of FoxM1 protein levels in tumor cells; format: cell-based, human; conditions: U266, RPMI8226, HL-60 and U2OS cells, 24 hours, FIG. 2B
Procedure: The effects of proteasome inhibitors on FoxM1 protein expression were also examined. U266 and RPMI8226, both multiple myeloma cells, HL-60 leukemia cells and human U2OS osteosarcoma cells were treated with proteasome inhibitors MG115, MG132 and VELCADE® for 24 hours. Cell lysates were harvested and the FoxM1 protein levels were analyzed by immunoblot analysis. […] See also U.S. Patent Application Publication No. 2008/0152618.

[3] = system: U266 and RPMI8226 multiple myeloma, HL-60 leukemia and U2OS osteosarcoma cells; experiment: Annexin V-PE/7AAD staining, FACS analysis of apoptosis; format: cell-based, human; conditions: U266, RPMI8226, HL-60 and U2OS cells, FIG. 3
Procedure: Proteasorne inhibitor-induced apoptosis was further quantified by using Annexin V-PE/7AAD staining. U266 and RPMI8226 multiple myeloma, HL-60 leukemia and U2OS osteosarcoma cells were cultured in the presence of proteasome inhibitors MG115, MG132 and VELCADE®. Following proteasome inhibitor treatment (or DMSO in the control), cells were stained with Annexin V-PE/7AAD (BD-Pharmingen, Franklin Lakes, N.J.) and then analyzed by Fluorescence-activated Cell Sorting (FACS). […] The concentrations of proteasome inhibitors used in the experiments shown in FIG. 3 were the same as those in FIG. 2. The percentages of apoptotic cells were shown in the parentheses in FIG. 3. The induction of apoptosis correlated with the suppression of FoxM1 (see FIG. 3 and FIG. 2B).

[4] = molecular target: T1, 20S proteasome (Homo sapiens, UniProt P28074); experiment: 20S Proteasome Activity Assay Kit (LLVY-AMC cleavage); format: biochemical; conditions: 25 μM, 15 minutes pre-incubation, 1 hour at 37° C., FIG. 1C
T1 construct: Millipore
Procedure: The effects of Siomycin A and thiostrepton on the 20S proteasome were compared with proteasome inhibitors MG132 and lactacystin using the Proteasome Activity Assay Kit following the manufacturer's instructions (Millipore). […] Proteasome samples were prepared according to the manufacturer's instructions. […] Samples were incubated for 1 hour at 37° C. and the fluorescence derived from the cleaved AMC was detected and quantified using a 380/460 nm filter in a fluorometer (Spectra Max GeminiXS, Molecular Devices, Sunnyvale, Calif.).

[5] = system: BxPC3 cells; experiment: Apoptosis induction by Siomycin A alone, BxPC3; format: cell-based, human; conditions: data not shown
[6] = system: Hdm2, p53, Mcl-1 and p21 protein levels in U2OS cells; experiment: Immunoblot analysis of Hdm2, p53, Mcl-1 and p21 protein levels in U2OS cells; format: cell-based, human; conditions: FIG. 1A
From the text: The effects of Siomycin A on the protein levels of these genes in the cells were compared with those of a proteasome inhibitor MG132.

[7] = system: HPAC cells; experiment: Apoptosis induction by Siomycin A alone, HPAC; format: cell-based, human; conditions: data not shown
[8] = system: Mia Paca cells; experiment: Apoptosis induction by Siomycin A alone, Mia Paca; format: cell-based, human; conditions: data not shown
[9] = system: MDAMB231 cells; experiment: Apoptosis induction by Siomycin A alone, MDAMB231; format: cell-based, human; conditions: data not shown
[10] = system: FoxM1 transcriptional activity; conditions: previously reported (US 2008/0152618; Radhakrishnan et al., 2006); cited from earlier work
[11] = system: NF-κB transcriptional activity; experiment: TNF-α-induced NF-κB-dependent luciferase assay in 293T-NF-κB-Luc cells; format: cell-based; conditions: 10 ng/mL TNF-α 24 hours, then compound 10 hours, FIG. 1B
Procedure: Proteasome inhibitors were known to inhibit the activity of NF-κB via the stabilization of its negative regulator IκB-α (Nakanishi et al., 2005, Nat Rev Cancer 5:297-309; Nencioni et al., 2007). The effects of Siomycin A and thiostrepton on NF-κB-dependent transcriptional activity were tested. 293T cells stably transfected with an NF-κB-Luc reporter construct (293T-NF-κB-Luc) were induced with 10 ng/mL TNF-αfor 24 hours. The next day, the cells were treated with Siomycin A or thiostrepton for an additional 10 hours, and followed by luciferase assay. The luciferase activity was determined by using the Luciferase Assay System (Promega, Madison, Wis.) according to the manufacturer's instructions. The data were normalized based on the amount of proteins in the samples.

[12] = system: U2OS-C3 cells; experiment: Active caspase 3 immunoblot in U2OS-C3 cells with doxycycline-induced FoxM1 over-expression; format: cell-based, human; conditions: compound 24 hours, FIG. 4
Procedure: Over-expression of FoxM1 was often observed in a variety of tumors. See Pilarsky et al., 2004, Neoplasia 6(6):744-750; Chan et al., 2008, J Pathol 215(3):245-252. A U2OS-derived cell line stably expressing doxycycline-inducible FoxM1-GFP fusion protein (U2OS-C3) was used to examine the role of FoxM1 in apoptosis induced by proteasome inhibitors. Exogenous FoxM1 expression was induced by doxycycline and the following day the cells were treated with different concentrations of VELCADE® for 24 hours.

[13] = system: Prostate cancer DU145 and PC3 cells; format: cell-based; conditions: data not shown
[14] = toxicity studies, Aghajanian et al., 2002; cited from earlier work

CC[C@H](C)[C@H](NC(=O)OCc1ccccc1)C(=O)N[C@@H](CCC(=O)OC(C)(C)C)C(=O)N[C@@H](C)C(=O)N[C@H](C=O)CC(C)C [PSI, N-benzyloxycarbony-Ile-Glu-(O-t-butyl)-Ala-leucinal] (Cbz-IE(OtBu)AL-aldehyde)
FoxM1 transcriptional activity (luciferase) [1]: inhibited FoxM1 transcriptional activity

CCC[C@@H](C=O)NC(=O)[C@H](CC(C)C)NC(=O)[C@H](CC(C)C)NC(=O)OCc1ccccc1 [MG115, Z-L-leucyl-L-leucyl-L-norvalinal] (Cbz-Leu-Leu-[Nva]-aldehyde)
levels of FoxM1 protein [2]: the levels of FoxM1 protein decreased | induction of apoptosis (Annexin V-PE/7AAD) [3]: induced apoptosis in the cells | FoxM1 transcriptional activity (luciferase) [1]: inhibited FoxM1 transcriptional activity

CC(=O)N[C@@H](CSC(=O)[C@]1([C@@H](O)C(C)C)NC(=O)[C@H](C)[C@@H]1O)C(=O)O [lactacystin]
proteolytic activity of the 20S proteasome (free AMC) [4]: the decrease was not as prominent as that by MG132 or lactacystin

C=C(NC(=O)C(=C)NC(=O)c1csc(C2=N[C@@H]3c4csc(n4)[C@H]4NC(=O)c5csc(n5)[C@H]([C@](C)(O)[C@@H](C)O)NC(=O)[C@H]5CSC(=N5)/C(=C/C)NC(=O)[C@H]([C@@H](C)O)NC(=O)c5csc(n5)[C@]3(CC2)NC(=O)[C@H](C)NC(=O)C(=C)NC(=O)C(=C)NC(=O)[C@H](C(C)C)N[C@@H]2C=Cc3c([C@H](C)O)cc(nc3[C@H]2O)C(=O)O[C@@H]4C)n1)C(N)=O [Siomycin A]
concentration required to induce apoptosis when used alone [5]: 5 µM | cellular protein levels of Hdm2, p53, Mcl-1 and p21 [6]: increased the cellular protein levels of Hdm2, p53, Mcl-1 and p21 | concentration required to induce apoptosis when used alone [7]: 10 to 15 µM | proteolytic activity of the 20S proteasome (free AMC) [4]: decreased proteolytic activity of the 20S proteasome | concentration required to induce apoptosis when used alone [8]: 5 µM | concentration required to induce apoptosis when used alone [9]: 5 µM | FoxM1 transcriptional activity and FoxM1 protein expression, reported previously [10]: inhibited FoxM1 transcriptional activity as well as FoxM1 protein expression in cells | TNF-α-induced NF-κB transcriptional activity [11]: suppressed TNF-α-induced NF-κB transcriptional activity

CC(C)C[C@H](NC(=O)[C@H](Cc1ccccc1)NC(=O)c1cnccn1)B(O)O [VELCADE®, pyrazylcarbony-phenylalanyl-leucyl-boronate]
active caspase 3 expression in cells over-expressing FoxM1 [12]: VELCADE®-induced active caspase 3 expression was reduced in cells that over-expressed FoxM1 | minimal concentration required for induction of caspase 3 expression, compound alone [13]: 50 nM | levels of FoxM1 protein [2]: the levels of FoxM1 protein decreased | induction of apoptosis (Annexin V-PE/7AAD) [3]: induced apoptosis in the cells | therapeutic index [14]: very narrow therapeutic index | FoxM1 transcriptional activity (luciferase) [1]: inhibited FoxM1 transcriptional activity

COc1cccc2c1C(=O)c1c(O)c3c(c(O)c1C2=O)C[C@@](O)(C(=O)CO)C[C@@H]3O[C@H]1C[C@H](N)[C@H](O)[C@H](C)O1 [doxorubicin]
active caspase 3 expression in cells over-expressing FoxM1 [12]: over-expression of FoxM1 did not protect against doxorubicin-induced caspase 3 expression

C=C(NC(=O)C(=C)NC(=O)c1csc(C2=N[C@@H]3c4csc(n4)[C@H]4NC(=O)c5csc(n5)[C@H]([C@](C)(O)[C@@H](C)O)NC(=O)[C@H]5CSC(=N5)/C(=C/C)NC(=O)[C@H]([C@@H](C)O)NC(=O)c5csc(n5)[C@]3(CC2)NC(=O)[C@H](C)NC(=O)C(=C)NC(=O)[C@H](C)NC(=O)[C@H]([C@@H](C)CC)N[C@@H]2C=Cc3c([C@H](C)O)cc(nc3[C@H]2O)C(=O)O[C@@H]4C)n1)C(N)=O [thiostrepton]
minimal concentration required for induction of caspase 3 expression, compound alone [13]: 3000 nM | proteolytic activity of the 20S proteasome (free AMC) [4]: decreased proteolytic activity of the 20S proteasome | FoxM1 transcriptional activity and FoxM1 protein expression, reported previously [10]: inhibited FoxM1 transcriptional activity as well as FoxM1 protein expression in cells | TNF-α-induced NF-κB transcriptional activity [11]: suppressed TNF-α-induced NF-κB transcriptional activity

CC(C)C[C@@H](C=O)NC(=O)[C@H](CC(C)C)NC(=O)[C@H](CC(C)C)NC(=O)OCc1ccccc1 [MG132, Z-L-leucyl-L-leucyl-L-leucinal] (Cbz-Leu-Leu-Leu-aldehyde)
proteolytic activity of the 20S proteasome (free AMC) [4]: the decrease was not as prominent as that by MG132 or lactacystin | levels of FoxM1 protein [2]: the levels of FoxM1 protein decreased | induction of apoptosis (Annexin V-PE/7AAD) [3]: induced apoptosis in the cells | FoxM1 transcriptional activity (luciferase) [1]: inhibited FoxM1 transcriptional activity
